Measured values as given in patent US20140323519A1, “HETEROCYCLIC COMPOUNDS AS B-RAF INHIBITORS FOR TREATMENT OF CANCER” (MERCK SHARP & DOHME CORP., priority 2011, published 2014).

Target: T1, B-Raf kinase (Homo sapiens, UniProt P15056)
T1 construct: purchased Upstate 14-530
Assay: B-Raf kinase assay (IMAP fluorescence polarisation, B-raf/MEK1/ERK2 cascade)
Assay type: biochemical
Conditions: B-raf 0.2 U/mL, 50 μM ATP, 60 min pre-incubation, FP readout
Experimental: Other assays are known in the literature and could be readily performed by those of skill in the art.
9) B-raf, active enzyme (for example #14-530, Upstate)
13) Fluorescein labeled substrate peptide (“ERK-tide”; IPTTPITTTYFFFK-5FAM-COOH), (for example #R7292/#R7293, Molecular Devices)
Prepare fresh Kinase Reaction buffer (KR-buffer) just before use: 50 mL Reaction buffer+50 μl 1 M DTT (1 mM final concentration). Serial dilutions of test compounds are made in 100% DMSO. For example a 10 points half log serial dilution from 1 mM to 31.6 nM leading to a final compound concentration range in the assay from 10 μM to 0.316 nM can be used.
1) Add 2.5 μL/well test compound in KR-buffer (this solution contains 8% DMSO) or (in minimum, maximum and background wells) 2.5 μL/well KR-buffer containing 8% DMSO. (Final DMSO concentration in the assay is 1%).
2) Add 5 μL/well 0.8 U/mL B-raf enzyme diluted in KR-buffer (final B-raf enzyme concentration in the assay is 0.2 U/mL) to all wells.
3) Pre-incubate 60 minutes at room temperature in the dark.
4) Add 5 μL/well 256 ng/mL MEK1 enzyme diluted in KR-buffer (final MEK1 enzyme concentration in the assay is 64 ng/mL) to all wells.
5) Add 5 μL/well 2.4 μg/mL Erk2 enzyme with 200 nM Fl-peptide substrate diluted in KR-buffer (final concentration in the assay of Erk2 enzyme is 600 ng/mL and of Fl-peptide substrate is 50 nM) to all wells except the background wells. Add here 5 μL/well 2.4 μg/mL Erk2 enzyme without 200 nM Fl-peptide substrate.
6) Add 2.5 μL/well 400 μM ATP to minimum and compound wells (50× dilution of the mM stock in KR-buffer, final ATP concentration in the assay is 50 μM) or (in maximum wells) 2.5 μl/well KR-buffer.
7) Incubate 60 minutes at 30° C. in the dark.
8) Add 20 μL/well IMAP Progressive Binding Solution (IMAP Progressive Binding Solution: 75% 1× buffer A and 25% 1× buffer B with 1:900 dilution of Progressive Binding Reagent, all kit contents) to all wells.
9) Incubate 60 minutes at room temperature in the dark.
10) Read the FP signal on Envision multi-label reader.
On every 384-well assay plate, 16-18 wells are used as minimum wells (wells without inhibitor, 0% effect), 16-18 wells are used as maximum wells (wells without ATP, 100% effect). 16 wells are used for measuring the background signal (everything but not substrate). For all assay plates duplicates are prepared.
Run as two independent experiments (N=2) on duplicate plates (n=2).
IC50 Determinations: mP values of compound test wells are converted to percent effect based on 0% effect and 100% effect controls. Dose-response curves were generated from percent effect data plotted against test compound concentration, each in duplicate, from 10 point serial dilutions of inhibitory compounds. To generate IC50 values, the dose-response curves were fitted to a standard sigmoidal curve and IC50 values were derived by nonlinear regression analysis.

T1 sequence (P15056 416-766 limits assumed): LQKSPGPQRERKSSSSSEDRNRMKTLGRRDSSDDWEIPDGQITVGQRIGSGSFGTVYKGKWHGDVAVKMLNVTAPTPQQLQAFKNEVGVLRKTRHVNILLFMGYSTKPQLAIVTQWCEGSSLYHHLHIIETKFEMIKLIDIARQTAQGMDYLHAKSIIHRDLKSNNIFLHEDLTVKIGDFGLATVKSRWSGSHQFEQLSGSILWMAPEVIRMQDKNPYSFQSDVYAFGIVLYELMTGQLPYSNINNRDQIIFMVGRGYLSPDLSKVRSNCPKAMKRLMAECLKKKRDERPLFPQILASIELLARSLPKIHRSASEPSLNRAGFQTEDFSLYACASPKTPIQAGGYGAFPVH

| IC50 | SMILES |
| --- | --- |
| 50 to 100 nM | COc1ccc2c(c1)C(=O)N(c1cc(NC(=O)c3cccc(C(C)(C)C#N)c3)ccc1C)C2 [Compound 1-1, 3-(2-cyanopropan-2-yl)-N-(3-(6-methoxy-1-oxoisoindolin-2-yl)-4-methylphenyl)benzamide] |
| 50 to 100 nM | Cc1ccc(NC(=O)c2cccc(C(C)(C)C#N)c2)cc1N1CC(c2ccccc2)CC1=O (stereo not drawn) [Compound 1-5, 3-(Cyano-dimethyl-methyl)-N-[4-methyl-3-(2-oxo-4-phenyl-pyrrolidin-1-yl)-phenyl]-benzamide] |
| 50 to 100 nM | Cc1ccc(NC(=O)c2cccc(C(C)(C)C#N)c2)cc1-n1c(=O)n(C)c2ccccc21 [Compound 1-6, 3-(2-cyanopropan-2-yl)-N-(4-methyl-3-(3-methyl-2-oxo-2,3-dihydro-1H-benzo[d]imidazol-1-yl)phenyl)benzamide] |
| 50 to 100 nM | Cc1ccc(NC(=O)c2cccc(C(C)(C)C#N)c2)cc1N1CC(c2ccccc2)OC1=O (stereo not drawn) [Compound 1-7, 3-(Cyano-dimethyl-methyl)-N-[4-methyl-3-(2-oxo-5-phenyl-oxazolidin-3-yl)-phenyl]-benzamide] |
| > 100 nM | Cc1ccc(NC(=O)c2cccc(C(C)(C)C#N)c2)cc1N1CCN(c2ccccc2)C1=O [Compound 1-8, 3-(Cyano-dimethyl-methyl)-N-[4-methyl-3-(2-oxo-3-phenyl-imidazolidin-1-yl)-phenyl]-benzamide] |
| > 100 nM | COc1ccc2c(c1)n(-c1cc(NC(=O)c3cccc(C(C)(C)C#N)c3)ccc1C)c(=O)n2C [Compound 1-9, 3-(Cyano-dimethyl-methyl)-N-[3-(6-methoxy-3-methyl-2-oxo-2,3-dihydro-benzoimidazol-1-yl)-4-methyl-phenyl]-benzamide] |
